Here are results for six molecules from patent publication US7071294B1, “Tumor antigen protein art-1 and tumor antigen peptide thereof” (Green Peptide Co., Ltd., priority 1998, dated 2006).

Where no end group is shown, it is not given here.

In assay [1] the test system is peripheral blood lymphocytes. Description: CTL induction from peripheral blood lymphocytes by tumor antigen peptides; IFN-γ produced in response to MT-2 target cells (ELISA). It counts as cell-based, human. Conditions: for IFN-γ in Supernatant: HLA-A24 heterozygous healthy donor lymphocytes stimulated three times with 10 μM peptide, 8×10^4 lymphocytes vs 1×10^4 MT-2 target cells, no peptide gave 3; for IFN-γ production by peptide-stimulated peripheral blood lymphocytes in response to the target cell (CTL induction): MT-2 target cells, not seen with no stimulation. Here is the method: Using the Ficoll method, lymphocytes were separated from peripheral blood of healthy donors who were heterozygous for A24 in the HLA-A locus. The lymphocytes were placed into wells of a 24-well plate at 2×10^6 cells/well, and cultured in the lymphocyte medium. The above tumor antigen peptides were added to the culture medium at 10 μM to stimulate the peripheral blood lymphocytes. One week later, the above tumor antigen peptides were added to attain 10 μM together with about 2×10^5 cells of X-radiated (50 Gy) peripheral blood lymphocytes for the second stimulation. Additional one week later, the third stimulation was conducted in a similar manner. Cultured lymphocytes were harvested one week after the third stimulation. Using as target cells (1×10^4 cells) MT-2, which is an HLA-A2402-positive leukemia cell line expressing the tumor antigen peptide, the amount of IFN-γ in the culture medium produced by the above lymphocytes (8×10^4 cells) in response to the target cells was measured in accordance with ELISA method.

In assay [2] the test system is KG-CTL. Description: IFN-γ production by KG-CTL in response to HLA-A2402-transfected COS-7 cells pulsed with peptide (ELISA). It counts as cell-based, human. The settings on record: COS-7 transfected with HLA-A2402 cDNA. As for the experimental part: A surgical sample taken from a patient with lung cancer was cut into small pieces, and then stirred in a culture fluid containing collagenase and DNAse to suspend cells. The cell suspension was centrifuged using Ficoll Conray solution to separate lymphocytes. The lymphocytes were cultured on 24-well plate in a culture medium consisting of 45% RPMI-1640, 45% AIM-V (GIBCO BRL), and 10% FCS supplemented with 100 U/ml interleukin-2 and 0.1 mM NEAA (GIBCO BRL) (hereinafter referred to as lymphocyte medium). During the first two days of the cultivation, an anti-CD3 antibody NU-T3 (Nichirei Corporation) was added to the culture medium at 1 μg/ml. The cultivation was continued for more than 30 days, and a CTL line that is reactive with some kinds of HLA-A24- or HLA-A2-positive cancer cell lines was established. The established CTL line was named KG-CTL and used in subsequent procedures. The reactivity of KG-CTL to each cancer cell line was examined by inoculating the cancer cell line into 96-well plate at 1×10^4, adding KG-CTL at 1×10^5/well thereto on the following day, culturing the same for additional 18 hours, and then determining amount of interferon-γ (IFN-γ) produced by KG-CTL in the recovered culture medium. Measurement of IFN-γ was conducted by enzyme immunoassay (ELISA). […] Anti-human IFN-γ rabbit polyclonal antibody as detection antibody was then allowed to bind, and after binding to an anti-rabbit immunoglobulin goat antibody labeled with […] (Amersham), the chromophore was developed using Peroxidase Chromophoric Kit T (Sumitomo Bakelite), followed by measuring absorbance at 405 nm. The absorbance was compared with that obtained with standard IFN-γ to determine the amount of IFN-γ in the sample. […] The cells were then cultured with 2×10^4 KG-CTLs for 18 hours, and the amount of IFN-γ produced by KG-CTL in the culture supernatant was determined by the ELISA method, thus identifying tumor antigen peptides.
In general terms: An ELISA detects its analyte on a solid surface through an enzyme-linked reagent.

Assay [3] deals with T1, HLA-A2402 expressed on COS-7 cells transfected with a recombinant plasmid for HLA-A2402 cDNA (human, UniProt P04439-2 25-302 at identity 0.92)).
T1 MHC heavy: not shown
Description: cell-based or functional assay.

With GFDCANESVL [170–179], in assay [1], the “IFN-γ in Supernatant” value was found to be 237 pg/mL and the “IFN-γ production by peptide-stimulated peripheral blood lymphocytes in response to the target cell (CTL induction)” value (shortened to “IFN-γ production”) is reported as “produced IFN-γ in response to the target cell”. The “Reactivity of KG-CTLs compared to cells pulsed with no peptide” value in assay [2] is “reacted more strongly”.
For LYQAVATI [158–165], in assay [1], the “IFN-γ in Supernatant” value amounted to 330 pg/mL and the “IFN-γ production” value was “produced IFN-γ in response to the target cell”. The “Reactivity of KG-CTLs compared to cells pulsed with no peptide” value in assay [2] is “reacted more strongly”.
EYCLKFTKL [188–196]: in assay [1], the “IFN-γ in Supernatant” value came out at 147 pg/mL and the “IFN-γ production” value is listed as “produced IFN-γ in response to the target cell”. Moreover, in assay [2], the “Reactivity of KG-CTLs compared to cells pulsed with no peptide” value is “reacted more strongly”.
In the case of LYQAVATI, the “Amount of IFN-γ produced by KG-CTL in the response” value in assay [3] is 289 pg/mL.
Regarding EYCLKFTKL, in assay [3], the “Amount of IFN-γ produced by KG-CTL in the response” value was determined as 399 pg/mL.
On the same count and under the same terms, the value for GFDCANESVL was 458 pg/mL.
